Results taken from ChEMBL document CHEMBL4823254, “Tetrahydroquinoline-Capped Histone Deacetylase 6 Inhibitor SW-101 Ameliorates Pathological Phenotypes in a Charcot-Marie-Tooth Type 2A Mouse Model” (J Med Chem, 2021).
Calls of active or inactive are those of the source. The calls are words filed in the database; no cut-off is given here.

Key:
[1] = Half life in C57BL/6J mouse brain at 15 mg/kg, ip; format: ADME, organism-based
[2] = biological target: T1, Protein deacetylase HDAC6 (Homo sapiens, UniProt Q9UBN7)
T1 sequence (Q9UBN7 whole entry): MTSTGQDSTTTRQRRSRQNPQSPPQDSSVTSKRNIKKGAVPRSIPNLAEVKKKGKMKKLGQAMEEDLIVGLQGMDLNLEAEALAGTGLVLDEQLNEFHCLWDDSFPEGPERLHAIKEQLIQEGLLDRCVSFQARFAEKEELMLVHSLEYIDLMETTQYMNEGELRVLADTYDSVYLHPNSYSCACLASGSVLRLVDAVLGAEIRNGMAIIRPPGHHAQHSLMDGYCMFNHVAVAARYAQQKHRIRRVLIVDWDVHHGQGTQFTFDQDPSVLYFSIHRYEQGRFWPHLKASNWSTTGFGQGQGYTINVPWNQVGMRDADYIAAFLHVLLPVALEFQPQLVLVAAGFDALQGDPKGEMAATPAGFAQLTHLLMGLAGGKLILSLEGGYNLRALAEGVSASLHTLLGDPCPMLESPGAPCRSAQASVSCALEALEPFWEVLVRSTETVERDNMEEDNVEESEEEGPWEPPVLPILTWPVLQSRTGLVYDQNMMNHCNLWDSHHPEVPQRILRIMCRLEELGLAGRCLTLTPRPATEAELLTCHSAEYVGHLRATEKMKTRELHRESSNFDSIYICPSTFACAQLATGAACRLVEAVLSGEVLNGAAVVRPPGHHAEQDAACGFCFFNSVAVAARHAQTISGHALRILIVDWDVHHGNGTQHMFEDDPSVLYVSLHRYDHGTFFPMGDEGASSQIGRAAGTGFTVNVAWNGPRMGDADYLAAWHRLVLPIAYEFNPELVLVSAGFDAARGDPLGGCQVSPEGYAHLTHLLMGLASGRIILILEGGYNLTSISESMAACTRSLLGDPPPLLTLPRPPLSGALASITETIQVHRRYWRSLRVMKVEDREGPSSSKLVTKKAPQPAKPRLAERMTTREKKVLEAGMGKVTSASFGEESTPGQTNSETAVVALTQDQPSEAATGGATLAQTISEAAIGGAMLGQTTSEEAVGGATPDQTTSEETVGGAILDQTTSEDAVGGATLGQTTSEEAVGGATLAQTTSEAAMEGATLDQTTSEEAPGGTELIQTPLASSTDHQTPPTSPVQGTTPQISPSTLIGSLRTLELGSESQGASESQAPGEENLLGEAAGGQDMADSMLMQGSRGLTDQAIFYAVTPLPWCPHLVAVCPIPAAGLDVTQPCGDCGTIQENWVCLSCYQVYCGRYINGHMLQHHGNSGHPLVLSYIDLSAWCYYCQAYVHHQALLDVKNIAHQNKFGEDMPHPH
Description: Inhibition of recombinant human HDAC6 using Ac-GAK(Ac)-AMC as substrate preincubated for 10 mins followed by substrate addition and measured after 30 mins by fluorescence-based assay

[3] = Genotoxicity in Salmonella typhimurium TA98 at 5 to 100 uM in absence of liver S9 fraction by Ames test; format: toxicity; details: salmonella enterica subsp. enterica serovar typhimurium, s9, 100 µM; dose 5-100 µM
[4] = biological target: T2, Protein deacetylase HDAC6 (Mus musculus) (UniProt Q9Z2V5); assay: In vivo inhibition of HDAC6 in hMFN2-induced CMT2A transgenic mouse model assessed as increase in acetylated tubulin in distal sciatic nerve tissue at 20 mg/kg, ip qd administered for 12 weeks followed by treatment with compound dissolved in PBS/PEG400/Tween80/EtOH (50/35/10/5) wt% as vehicle by Western blot analysis; format: functional, organism-based
T2 sequence (whole entry): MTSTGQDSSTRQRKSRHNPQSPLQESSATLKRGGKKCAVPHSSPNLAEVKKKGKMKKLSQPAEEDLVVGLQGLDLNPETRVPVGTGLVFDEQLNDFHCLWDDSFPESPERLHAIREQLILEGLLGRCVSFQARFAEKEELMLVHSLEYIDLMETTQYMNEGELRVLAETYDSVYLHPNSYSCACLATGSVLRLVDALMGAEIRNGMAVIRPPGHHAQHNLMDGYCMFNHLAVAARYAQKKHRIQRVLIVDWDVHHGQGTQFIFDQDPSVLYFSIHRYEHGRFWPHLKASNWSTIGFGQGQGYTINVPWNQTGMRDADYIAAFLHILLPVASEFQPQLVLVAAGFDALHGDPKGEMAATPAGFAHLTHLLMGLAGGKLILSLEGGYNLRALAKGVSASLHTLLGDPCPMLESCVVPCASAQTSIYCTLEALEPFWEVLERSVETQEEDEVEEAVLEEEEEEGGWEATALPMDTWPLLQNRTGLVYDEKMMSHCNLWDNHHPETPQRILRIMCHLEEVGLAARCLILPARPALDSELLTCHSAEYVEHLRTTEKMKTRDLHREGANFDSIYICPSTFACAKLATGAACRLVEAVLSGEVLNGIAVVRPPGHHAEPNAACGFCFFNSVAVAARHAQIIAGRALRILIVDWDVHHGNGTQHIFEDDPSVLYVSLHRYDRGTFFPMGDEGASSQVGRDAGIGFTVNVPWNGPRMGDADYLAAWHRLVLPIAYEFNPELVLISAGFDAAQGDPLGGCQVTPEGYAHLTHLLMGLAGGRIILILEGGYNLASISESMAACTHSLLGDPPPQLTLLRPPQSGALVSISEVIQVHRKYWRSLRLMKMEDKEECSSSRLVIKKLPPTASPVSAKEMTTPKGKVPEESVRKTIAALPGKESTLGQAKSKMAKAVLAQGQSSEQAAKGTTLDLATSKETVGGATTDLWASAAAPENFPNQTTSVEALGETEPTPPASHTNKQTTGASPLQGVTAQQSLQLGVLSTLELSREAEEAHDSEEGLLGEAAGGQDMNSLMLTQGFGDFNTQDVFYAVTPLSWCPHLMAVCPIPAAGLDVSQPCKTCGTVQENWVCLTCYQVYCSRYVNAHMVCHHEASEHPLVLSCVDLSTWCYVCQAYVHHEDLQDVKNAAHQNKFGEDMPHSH

[5] = Tmax in C57BL/6J mouse plasma at 15 mg/kg, ip; format: ADME, organism-based
Mus musculus [6] = assay: Neuroprotective activity in hMFN2-induced CMT2A transgenic mouse model assessed as increase in paw withdrawal latency at 20 mg/kg, ip qd administered when treated prior with compound dissolved in PBS/PEG400/Tween80/EtOH (50/35/10/5) wt% as vehicle by von Frey test; format: functional, organism-based
Mus musculus [7] = assay: Neuroprotective activity in hMFN2-induced CMT2A transgenic mouse model assessed as increase in motor performance at 20 mg/kg, ip qd administered for 26 weeks when treated prior with compound dissolved in PBS/PEG400/Tween80/EtOH (50/35/10/5) wt% as vehicle by rotarod test; format: functional, organism-based
[8] = Total AUC (0 to infinity) in C57BL/6J mouse plasma at 15 mg/kg, ip; format: ADME, organism-based; set-up: route intraperitoneal, time AUCmax, dose 15 mg/kg
[9] = Half life in human pooled liver microsomes assessed as parent compound remaining measured up to 60 mins in presence of NADPH by LC-MS/MS analysis; format: ADME, Microsome; details: pooled liver microsomes
[10] = biological target: T1, Protein deacetylase HDAC6; remark: listed apart in the source
Description: Inhibition of Nanoluc-fused HDAC6 CD2 (unknown origin) expressed in HEK293 cells incubated for 2 hrs by NANOBRET assay

- half-life [1]: 2.9 h
- IC50 [2]: 0.7 nM
- inhibition [4]: Active
- Tmax [5]: 4.8 min
- AUC(0-inf) [8]: 1750 ng·h/mL
- half-life [9]: 2.89 h
- IC50 [10]: 1370 nM
Structure (SMILES): NC(=O)c1ccc2c(c1)CCCN2Cc1ccc(C(=O)NO)cc1
- Activity [3]: Non-Toxic
- Activity (Mus musculus [6]): Active
- Activity (Mus musculus [7]): Active
